# Where two headings read alike, the source gives them in different places.
# Legend:
# HDL = conditions: FIG. 2
# triglycerides = conditions: FIG. 5
# LDL-C = conditions: for Percent Change from Baseline in LDL, adjusted mean: TOFACITINIB 10 mg BID
# [1] = relative to Enrollment Visit
# Excerpt: Table 2 presents the ACR20 (American College of Rheumatology 20% improvement in response rate) response rates (relative to Enrollment Visit, i.e., pre-TOFACITINIB treatment).
# Apolipoprotein B = conditions: FIG. 4
# Apolipoprotein A-1 = conditions: FIG. 3
# total cholesterol = conditions: FIG. 6
# [2] = following introduction of TOFACITINIB treatment
# [3] = after Enrollment Visit (introduction of TOFACITINIB treatment)
structure (smiles),measurement,setting,value
"C[C@@H]1CCN(C(=O)CC#N)C[C@@H]1N(C)c1ncnc2[nH]ccc12 [TOFACITINIB, 3-{(3R,4R)-4-Methyl-3-[methyl-(7H-pyrrolo-[2,3-d]pyrimidin-4-yl)-amino]-piperidin-1-yl}-3-oxo-propionitrile]","HDL level, trend",HDL; after Baseline Visit,slight upward trend
same,"HDL level, trend",HDL; following the Enrollment Visit,increase
same,"triglycerides level, trend",triglycerides; after Baseline Visit,increases continue
same,"triglycerides level, trend",triglycerides; [2],increase
same,"Percent Change from Baseline in LDL, adjusted mean",LDL-C; Week 10,5.5%
same,"Percent Change from Baseline in LDL, adjusted mean",LDL-C; Week 12 (primary endpoint),5.8%
same,baseline LDL-C mean,"LDL-C; after 6 weeks treatment with TOFACITINIB, placebo/TOFACITINIB treatment group, before placebo was added",138.26 mg/dL
same,"LDL level, trend","LDL-C; after Baseline Visit, FIG. 1",slightly increasing trend
same,"median LDL-C level, trend","LDL-C; after Enrollment Visit (introduction of TOFACITINIB treatment), FIG. 1",increase
same,LDL-C mean,"LDL-C; week 12, 6 weeks following randomization",142.61 mg/dL
same,"ACR20 response rate, % of responders","[1]; Baseline (after 6 week treatment of TOFACITINIB 10 mg BID), atorvastatin group before add-on",76.0%
same,"ACR20 response, number of responders","[1]; Baseline (after 6 week treatment of TOFACITINIB 10 mg BID), atorvastatin group before add-on, N 50",38
same,"ACR20 response rate, % of responders","[1]; Baseline (after 6 week treatment of TOFACITINIB 10 mg BID), placebo group before add-on",76.6%
same,"ACR20 response, number of responders","[1]; Baseline (after 6 week treatment of TOFACITINIB 10 mg BID), placebo group before add-on, N 47",36
same,"ACR20 response rate, % of responders","[1]; Week 12, after 6 week treatment of atorvastatin or placebo added on to TOFACITINIB 10 mg BID",65.2%
same,"ACR20 response, number of responders","[1]; Week 12, after 6 week treatment of atorvastatin or placebo added on to TOFACITINIB 10 mg BID, N 46",30
same,"Apolipoprotein B level, trend",Apolipoprotein B; after Baseline Visit,slightly increasing trend
same,"median Apolipoprotein B level, trend",Apolipoprotein B; [3],increase
same,"Apolipoprotein A-1 level, trend",Apolipoprotein A-1; after Baseline Visit,slightly trend upward
same,"Apolipoprotein A-1 level, trend",Apolipoprotein A-1; [2],increases
same,"total cholesterol level, trend",total cholesterol; after Baseline Visit,slightly increasing trend
same,"median total cholesterol level, trend",total cholesterol; [3],increase
